These results are taken from patent publication US20240166690A1, “MULTI-TARGET CY[…] FOR OPIOID/NEUROPEPTIDE FF RECEPTORS, AND PREPARATION THEREFOR AND APPLICATION THEREOF” (SHANGHAI TIANCI LIFE SCIENCE DEVELOPMENT CO., LTD., priority 2021, published 2024).

SMILES strings stand for the structures. Bridge positions count the residues as written; N and C are the ends. Square brackets hold non-standard residues; d marks the D form. Peptide text beside a SMILES is read from it. NMeF = CN[C@@H](Cc1ccccc1)C(=O)O; Cha = N[C@@H](CC1CCCCC1)C(=O)O; dDab = NCC[C@@H](N)C(=O)O; dDap = NC[C@@H](N)C(=O)O; Aib = CC(C)(N)C(=O)O; βAla = NCCC(=O)O

For one data set, the target named is T1, NPFF1 receptor (Homo sapiens, UniProt Q9GZQ6).
T1 construct: expressed in transfected cells; host or cells: HEK293
T1 sequence (Q9GZQ6 whole entry): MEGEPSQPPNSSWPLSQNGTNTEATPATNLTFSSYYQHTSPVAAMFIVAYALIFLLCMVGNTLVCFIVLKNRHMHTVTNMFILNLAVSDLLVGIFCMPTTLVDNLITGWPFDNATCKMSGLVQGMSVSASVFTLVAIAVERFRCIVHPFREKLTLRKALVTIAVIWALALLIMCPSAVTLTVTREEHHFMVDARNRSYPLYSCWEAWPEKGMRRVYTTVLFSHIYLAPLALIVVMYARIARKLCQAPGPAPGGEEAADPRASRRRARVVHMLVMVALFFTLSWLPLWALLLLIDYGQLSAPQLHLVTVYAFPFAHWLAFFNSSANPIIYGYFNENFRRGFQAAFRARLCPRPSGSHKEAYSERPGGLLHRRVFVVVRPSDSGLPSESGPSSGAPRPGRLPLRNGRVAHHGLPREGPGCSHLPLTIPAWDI
The data set can be described thus: cAMP functional experiment, NPFF1 receptor (forskolin-induced cAMP accumulation). It counts as cell-based. On the procedure: (§1) The agonistic activity of the cyclopeptide molecule of the present invention against Mu-opioid receptor, Delta-opioid receptor, Kappa-opioid receptor, NPFF1 receptor and NPFF2 receptor was evaluated by detecting the regulation of the cyclopeptide molecule of the present invention on the intracellular accumulation of cyclic adenosine monophosphate (cAMP) induced by Forskolin in HEK293 cells stably expressing these five receptors. The experimental method was: the cells were seeded in 24 well plates with 120000 cells per well, and were cultured for more than 20 hours. At the beginning of the experiment, the culture medium in the culture dish was suck out, and then 500 μL of preheated serum-free medium containing 1 mM of IBMX was added, the mixture was incubated at 37° C. for 10 minutes. Then each 10 μL of the drug to be tested and 10 μM of forskolin (final concentration) were added to each well. The mixture was incubated at 37° C. for 30 minutes. After incubation, all the liquid was suck out from the culture dish, 500 μL of 0.2 N hydrochloric acid was added to each well, the mixture was incubated at room temperature for 30 minutes to promote cell lysis. After lysis was complete, NaOH was added to neutralize the hydrochloric acid solution used for lysis. Then all the liquid was suck out from the culture dish into centrifuge tubes, the liquid was centrifuged at 12000 rpm for 2 minutes. 50 μL was taken to a clean centrifuge tube, 100 μL of 60 μg/μL PKA was added, and 100 μL of TE cAMP buffer was added to the blank control group (B). Another 50 μL of 0.5 μ Ci[^3H]cAMP was added to each of the above centrifuge tubes, the mixture was quickly mixed and incubated at 4° C. for more than 2 hours. After incubation, another 100 μL of activated carbon suspension was added to each tube, the mixture was vortex agitated evenly, placed in an ice bath for 1 minute, centrifuged at 5000 rpm for 4 minutes. 200 μL of supernatant after centrifugation in each tube was suck out to a 24 well plate, with an additional 700 μL of scintillator liquid added per well, then the 24 well plate was sealed with adhesive film, placed for 3 hours, then placed on the scintillation instrument for measurement.
(§2) The inhibitory effect of cAMP was represented by the percentage (% control) of drug inhibition of intracellular cAMP accumulation induced by Forskolin, wherein % control=(cAMP content when treated with Forskolin−cAMP content when Forskolin co-treated with the test drug)/(cAMP content when treated with Forskolin−cAMP content when treated with solvent). The related % control data was represented by mean±S.E.M. The dose-effect relationship of the drug was statistically analyzed using a nonlinear regression model, and the IC50 values of the multi-target cyclopeptide molecule on inhibition of Forskolin induced intracellular cAMP accumulation were calculated using the statistical software GraphPad Prism version 5.0.

The subject of data set [1] is Kunming male mice. The data set can be described thus: Photothermal tail flick experiment, oral administration. It counts as in vivo. Conditions: tail flick; for Maximum analgesic time: oral administration at the maximum analgesic dose; for analgesic duration: oral administration. The procedure:
(§3) Two administration methods were used: peripheral subcutaneous administration and oral administration. Subsequently, the analgesic activity of the drug was studied using an acute pain model of photothermal tail flick in mice.
1 mL sterile syringe was used for oral administration (p.o.), the pinhead was replaced with a mouse gastric lavage needle, and […] of the drug was orally administered. The skin on the neck and back of the mouse was grasped with the left hand with the abdomen facing upwards. Noted that the mouse's entire body was fixed to vertical, which was beneficial for oral gavage. A gastric lavage needle (No. 12 needle and 1 mL syringe) was held in the right hand and was inserted to the esophagus along the upper jaw which is pressed the tongue tightly from the corner of the mouse's mouth. Gastric lavage fluid can be injected when the needle inserted 2.5 cm. The inserting length of the needle should be determined through practice in advance, as there is a sense of falling into a hole after the needle is inserted. If the injection position was appropriate, it should be very smooth. […] This can cause immediate death of the mouse after gavage.
(§4) The photothermal tail flick experiment is based on the experimental method summarized by D'Amour and Smith to optimize the experimental parameters. The experiment selected Kunming male mice with body weigh 21±2 g, and ambient temperature controlled at 22±2° C. The experimental mice were allowed to drink water freely and were moved from the breeding room to the experimental area for adaptation for 30 minutes before starting the experiment. Then the mice were grab with the right hand and the tail hang freely. Then the mice's tail were placed on a radiation light source, 2-3 mm away from the mice tail. The intensity of radiation heat was adjusted to the tail flick time of mice being 3-5 s, which is the basic pain threshold of photothermal tail flick. The irradiation time of the mice tail should not exceed 10 s to prevent scalding of the mice tail, which was the maximum latency for photothermal tail flick. After administration, time points of 10, 20, 30, 45, 60, 90, 120, 180, 240, 300, 360, and 420 minutes were selected to measure the tail flick latency of mice after administration.
(§5) The analgesic effect of drugs was generally evaluated using the maximum analgesic effect MPE (%), MPE (%)=100×[(pain threshold after administration−basic pain threshold)/(10 seconds−basic pain threshold)]. 50% effective dose (ED50) refers to the corresponding drug dose that causes a 50% effect. ED50 and 95% confidence interval were calculated using MPE (%) and the drug concentration that achieves the maximum analgesic effect MPE (%) by the statistical software GraphPad Prism 5.0. The difference in analgesic effects was statistically analyzed using one-way ANOVA (Dunnett test), *P<0.05, **P<0.01, and ***P<0.001 indicated significance of the difference between the group with only drug injected and the saline group.

Data set [2] concerns Kunming male mice. The data set can be described thus: Photothermal tail flick experiment, subcutaneous injection. The settings on record: photothermal tail flick. It counts as in vivo. The procedure: as §3
Subcutaneous administration on the back was chosen for subcutaneous administration (s.c.). A sterile 1 mL syringe was used and the drug with the volume of 0.1 mL/10 g was injected for administration. The back skin was grasped with the right hand, the needle was tilted in, and the drug was injected subcutaneously into the mouse's back. After the needle was inserted, shook it left and right, and observe to confirm that the needle had indeed entered the subcutaneous area to prevent the needle from puncturing the skin and leaking the drug.
as §4, §5

The target in a further data set is T2, Kappa-opioid receptor (Homo sapiens, UniProt P41145).
T2 construct: expressed in transfected cells; host or cells: HEK293
T2 sequence (P41145 whole entry): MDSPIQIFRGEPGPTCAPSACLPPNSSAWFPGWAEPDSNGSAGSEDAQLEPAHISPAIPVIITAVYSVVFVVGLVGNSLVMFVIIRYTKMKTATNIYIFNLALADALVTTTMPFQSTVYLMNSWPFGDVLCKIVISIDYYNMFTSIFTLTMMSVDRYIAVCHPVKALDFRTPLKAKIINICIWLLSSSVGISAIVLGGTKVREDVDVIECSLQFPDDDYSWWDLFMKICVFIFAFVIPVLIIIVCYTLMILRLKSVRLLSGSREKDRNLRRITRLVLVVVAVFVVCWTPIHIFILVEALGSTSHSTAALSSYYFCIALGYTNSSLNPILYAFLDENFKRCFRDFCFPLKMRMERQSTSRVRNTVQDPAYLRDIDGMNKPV
The data set can be described thus: cAMP functional experiment, Kappa-opioid receptor (forskolin-induced cAMP accumulation). The class given is cell-based. On the procedure:
as §1, §2
A general note: cAMP levels reflect the balance of adenylyl cyclase and phosphodiesterase activity.

Another data set concerns the target T3, Mu-opioid receptor (Homo sapiens, UniProt P35372).
T3 construct: expressed in transfected cells; host or cells: HEK293
The data set can be described thus: cAMP functional experiment, Mu-opioid receptor (forskolin-induced cAMP accumulation). The class given is cell-based. On the procedure: as §1, §2

A further data set concerns the target T4, Delta-opioid receptor (Homo sapiens, UniProt P41143).
T4 construct: expressed in transfected cells; host or cells: HEK293
The data set can be described thus: cAMP functional experiment, Delta-opioid receptor (forskolin-induced cAMP accumulation). It counts as cell-based. The procedure: as §1, §2

A further data set concerns the target T5, NPFF2 receptor (Homo sapiens, UniProt Q9Y5X5).
T5 construct: expressed in transfected cells; host or cells: HEK293
The data set can be described thus: cAMP functional experiment, NPFF2 receptor (forskolin-induced cAMP accumulation). The class given is cell-based. On the procedure: as §1, §2

The conditions of data set [3]: morphine, reference method; cited from earlier work.

T5 sequence (Q9Y5X5 whole entry): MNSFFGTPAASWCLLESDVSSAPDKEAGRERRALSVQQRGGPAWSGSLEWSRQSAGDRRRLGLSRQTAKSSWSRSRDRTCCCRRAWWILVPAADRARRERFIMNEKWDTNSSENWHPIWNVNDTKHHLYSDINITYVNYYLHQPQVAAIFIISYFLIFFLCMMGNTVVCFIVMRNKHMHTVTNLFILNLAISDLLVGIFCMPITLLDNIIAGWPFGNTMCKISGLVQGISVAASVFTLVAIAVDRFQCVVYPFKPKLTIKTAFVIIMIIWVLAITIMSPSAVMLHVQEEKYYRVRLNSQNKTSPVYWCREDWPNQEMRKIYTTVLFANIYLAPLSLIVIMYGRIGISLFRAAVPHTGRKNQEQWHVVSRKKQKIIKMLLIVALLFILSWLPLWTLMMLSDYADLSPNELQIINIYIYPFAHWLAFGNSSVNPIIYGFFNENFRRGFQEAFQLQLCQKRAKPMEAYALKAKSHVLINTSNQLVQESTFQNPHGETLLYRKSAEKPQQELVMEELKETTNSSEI
T4 sequence (P41143 whole entry): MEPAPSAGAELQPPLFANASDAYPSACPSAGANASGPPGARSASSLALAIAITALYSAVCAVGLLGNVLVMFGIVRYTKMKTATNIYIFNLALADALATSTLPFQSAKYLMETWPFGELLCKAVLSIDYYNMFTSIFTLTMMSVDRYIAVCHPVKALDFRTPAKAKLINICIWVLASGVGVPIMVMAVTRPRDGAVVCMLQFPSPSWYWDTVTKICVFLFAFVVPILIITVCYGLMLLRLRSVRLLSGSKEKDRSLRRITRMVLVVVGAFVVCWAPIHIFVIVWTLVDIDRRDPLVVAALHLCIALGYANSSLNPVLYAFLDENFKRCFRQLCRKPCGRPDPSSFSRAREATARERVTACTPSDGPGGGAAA
T3 sequence (P35372 whole entry): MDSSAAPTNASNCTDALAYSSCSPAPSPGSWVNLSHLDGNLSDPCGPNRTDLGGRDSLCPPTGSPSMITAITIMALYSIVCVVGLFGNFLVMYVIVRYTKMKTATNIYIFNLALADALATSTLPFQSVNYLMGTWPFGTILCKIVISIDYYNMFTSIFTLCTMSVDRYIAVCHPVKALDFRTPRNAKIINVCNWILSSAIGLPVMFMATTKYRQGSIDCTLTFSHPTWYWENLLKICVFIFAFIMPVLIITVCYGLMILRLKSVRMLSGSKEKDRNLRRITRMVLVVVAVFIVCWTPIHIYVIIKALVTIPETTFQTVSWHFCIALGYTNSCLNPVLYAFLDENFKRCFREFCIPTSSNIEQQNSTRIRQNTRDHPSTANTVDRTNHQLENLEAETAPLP

A word on the melting point: it is the temperature, or range, at which the solid turns liquid. Take `CN1C(=O)CNC(=O)[C@H](NC(=O)[C@@H](N)Cc2ccc(O)cc2)CCC(=O)NCCCC[C@@H](C(=O)N2CCC[C@H]2C(=O)N[C@@H](CCC(N)=O)C(=O)N[C@@H](CCCNC(=N)N)C(=O)N[C@@H](Cc2ccccc2)C(N)=O)NC(=O)[C@@H]1Cc1ccccc1` [Compound 7, Tyr-c^[2,5][D-Glu-Gly-NMe-Phe-Lys]-Pro-Gln-Arg-Phe-NH2] (H-Y[dE]G[NMeF]KPQRF-NH2; lactam 2-5): the melting point is 182 to 184 °C.
Regarding `CN1C(=O)CNC(=O)[C@H](NC(=O)[C@@H](N)Cc2ccc(O)cc2)CCCCNC(=O)C[C@@H](C(=O)N2CCC[C@H]2C(=O)NC(C)(C)C(=O)N[C@@H](CCCNC(=N)N)C(=O)N[C@@H](CC2CCCCC2)C(N)=O)NC(=O)[C@@H]1Cc1ccccc1` [Compound 14, Tyr-c^[2,5][D-Lys-Gly-NMe-Phe-Asp]-Pro-Aib-Arg-Cha-NH2] (H-Y[dK]G[NMeF]DP[Aib]R[Cha]-NH2; lactam 2-5), the melting point lay within 196 to 198 °C.
`CN1C(=O)CNC(=O)[C@H](NC(=O)[C@@H](N)Cc2ccc(O)cc2)CCCCNC(=O)C[C@@H](C(=O)N2CCC[C@H]2C(=O)NCCC(=O)N[C@@H](CCCNC(=N)N)C(=O)N[C@@H](CC2CCCCC2)C(N)=O)NC(=O)[C@@H]1Cc1ccccc1` [Compound 13, Tyr-c[D-Lys-Gly-NMe-Phe-Asp]-Pro-β-Ala-Arg-Cha-NH2] (H-Y[dK]G[NMeF]DP[βAla]R[Cha]-NH2; lactam 2-5) gave a melting point of 175 to 177 °C.
As a reminder, the IC50 is the midpoint of a concentration-inhibition curve. Consider `CN1C(=O)CNC(=O)[C@@H](NC(=O)[C@@H](N)Cc2ccc(O)cc2)CCCCNC(=O)C[C@@H](C(=O)N2CCC[C@H]2C(=O)N[C@@H](CCC(N)=O)C(=O)N[C@@H](CCCNC(=N)N)C(=O)N[C@@H](Cc2ccccc2)C(N)=O)NC(=O)[C@@H]1Cc1ccccc1` [Compound 3, Tyr-c^[2,5][Lys-Gly-NMe-Phe-Asp]-Pro-Gln-Arg-Phe-NH2] (H-YKG[NMeF]DPQRF-NH2; lactam 2-5), for which the IC50 amounted to 28.9 nM against NPFF1 receptor; 320 nM at Kappa-opioid receptor; 70.7 nM against Mu-opioid receptor; 28.2 nM on Delta-opioid receptor; 112 nM against NPFF2 receptor. Besides, the Maximum analgesic time with Kunming male mice [1] is given as 20 min. In the data set with Kunming male mice [1], the analgesic duration stood at 240 min. Moreover, the “ED50 value (95% confidence interval), analgesic activity” value (“ED50 value (95% confidence interval)” below) in the data set on Kunming male mice [2] is recorded as 25.4 (22.1 to 29.2) μg/kg.
On to `CN1CC[C@]23c4c5ccc(O)c4O[C@H]2[C@@H](O)C=C[C@H]3[C@H]1C5` [morphine], for which the “analgesic ED50” value in data set [3] was 1.68 mg/kg.
On to `CN1C(=O)CNC(=O)[C@H](NC(=O)[C@@H](N)Cc2ccc(O)cc2)CNC(=O)C[C@@H](C(=O)N2CCC[C@H]2C(=O)N[C@@H](CCC(N)=O)C(=O)N[C@@H](CCCNC(=N)N)C(=O)N[C@@H](Cc2ccccc2)C(N)=O)NC(=O)[C@@H]1Cc1ccccc1` [Compound 10, Tyr-c^[2,5][D-Dap-Gly-NMe-Phe-Asp]-Pro-Gln-Arg-Phe-NH2] (H-Y[dDap]G[NMeF]DPQRF-NH2; lactam 2-5), for which the IC50 against NPFF1 receptor was 90.1 nM; against Kappa-opioid receptor, 136 nM; at Mu-opioid receptor, 238 nM; against Delta-opioid receptor it was 374 nM; on NPFF2 receptor, 349 nM. Moreover, the Maximum analgesic time in the data set on Kunming male mice [1] is recorded as 30 min. The molecule also showed an analgesic duration in the data set on Kunming male mice [1] of 240 min. Also, the “ED50 value (95% confidence interval)” value in the data set with Kunming male mice [2] was 15.0 (13.6 to 16.5) μg/kg.
Consider `CN1C(=O)CNC(=O)[C@H](NC(=O)[C@@H](N)Cc2ccc(O)cc2)CCNC(=O)C[C@@H](C(=O)N2CCC[C@H]2C(=O)N[C@@H](CCC(N)=O)C(=O)N[C@@H](CCCNC(=N)N)C(=O)N[C@@H](Cc2ccccc2)C(N)=O)NC(=O)[C@@H]1Cc1ccccc1` [Compound 9, Tyr-c^[2,5][D-Dab-Gly-NMe-Phe-Asp]-Pro-Gln-Arg-Phe-NH2] (H-Y[dDab]G[NMeF]DPQRF-NH2; lactam 2-5), for which the IC50 on NPFF1 receptor is 180 nM; against Kappa-opioid receptor, 71.2 nM; at Mu-opioid receptor, 37.9 nM; on Delta-opioid receptor, 95.1 nM; at NPFF2 receptor, 265 nM. This molecule displayed a Maximum analgesic time in the data set with Kunming male mice [1] of 30 min. Also, the analgesic duration with Kunming male mice [1] worked out at 240 min. In the data set on Kunming male mice [2], the “ED50 value (95% confidence interval)” value is 16.0 (14.4 to 17.6) μg/kg.
